Laboratory results taken from EP2380575B1, “Eslicarbazepine acetate and use” (Bial-Portela & CA, S.A., priority 2005, dated 2006).
Where two headings read alike, the source gives them in different places.

Experiments:
[1] = for share of total systemic drug exposure (as assessed by AUC0-24): 8 days multiple administration
Description: (§1) This human pharmacology trial was a study to investigate the steady-state pharmacokinetics of once-daily and twice-daily regimens of eslicarbazepine acetate in healthy subjects. […] On each of the treatment periods the volunteers received either a daily oral dose of eslicarbazepine acetate 900 mg once-daily (o.d.) or eslicarbazepine acetate 450 mg twice-daily (b.i.d.).
(§2) Blood samples were drawn either by direct venipuncture or via an intravenous catheter into lithium heparin tubes and centrifuged at approximately 1500 g for 10 minutes at 4°C. The resulting plasma was separated into 2 equal aliquots of 1 mL and stored at -20°C until required for analysis.
(§3) Plasma concentrations of eslicarbazepine acetate, eslicarbazepine, and R-licarbazepine were determined using isocratic liquid chromatography (LC) with single quadrupole mass spectrometric detection (MS).
(§4) The method involved the addition of 500 µL of approximately 0.5 µg/mL of 10,11-dihydrocarbamazepine (internal standard prepared in acetonitrile:water, 3:97, v:v) to 250 µL of plasma (centrifuged at 1800 rpm, prior to analysis) in a polypropylene tube. After vortex mixing for 10 seconds, the mixture was transferred to a Schleicher and Schuell C18/100 mg 96 well solid phase extraction plate. Each well was preconditioned with 800 µL methanol, followed by 800 µL acetonitrile and 800 µL acetonitrile:water (3:97, v:v) prior to application of the total sample volume. Each polypropylene tube was then washed with 500 µL acetonitrile:water (3:97, v:v) and the washings transferred to the respective well. The compounds were eluted into a collection plate with 750 µL acetonitrile and the extract evaporated to dryness under oxygen-free nitrogen, at 40°C. All solid phase extraction manipulations were undertaken using the Tomtec QUADRA 96® Model 320 system and a vacuum was applied at each elution step. The final extract was reconstituted in 100 µL of water:methanol (90:10, v:v) and mixed. The collection plate was then centrifuged at approximately 3000 rpm (at approximately 4°C, for approximately 10 minutes) prior to analysis. An aliquot of the final extract (10 µL) was injected onto the LC-MS system.
(§5) The LC-MS system used in the analysis consisted of a Perkin Elmer series 200 micro pump, a Perkin Elmer series 200 autosampler, and a Perkin Elmer/Sciex API 150EX single quadrupole mass spectrometer fitted with a Turbo IonSpray® source.
(§6) The pharmacokinetic parameters were derived from non-compartmental analysis using WinNonlin (Version 4.0, Pharsight Corporation, Mountain View, California).
(§7) Actual sampling times were used for the pharmacokinetic analysis. […] All calculations were made using raw data.
(§8) Summary statistics for each group and schedule sampling time were reported, as appropriate, using the geometric mean, arithmetic mean, standard deviation (SD), coefficient of variation (CV), median, minimum, and maximum. […] All tests of significance were performed at the p=0.05 level. The statistical package SAS (Version 8.2, SAS Institute Inc, Cary, NC) was used.

[2] = Trial B: pharmacokinetics following single and repeated doses in healthy young male subjects; assay type: in vivo, humans; conditions: for AUC(0-t) / half-life / Cmax / Tmax: male, human, oral; for AUC(0-t): read-out: Mean AUC0-24h (%CV); for half-life: read-out: Mean apparent t½ (%CV) (converted); for Cmax: read-out: Mean Cmax (%CV)
Description: The study integrated the results of three double-blind, randomized, placebo-controlled trials. To measure the pharmacokinetics of eslicarbazepine acetate following single doses, oral single doses of eslicarbazepine acetate ranging from 20 mg to 2400 mg were administered to healthy young male subjects (6 subjects per dose). The pharmacokinetics of eslicarbazepine acetate following repeated doses were measured by administering repeated oral doses ranging from 400 mg to 2400 mg of eslicarbazepine acetate to healthy young male subjects (6 subjects per dose) over a period of 8 days. Analytical test methods and experimental procedures were similar to those described for Trial A above.

clinical = conditions: both, human, plasma, po, 900 mg
Description: as §1, §2, §3, §4, §5, §6, §7, §8

[3] = multiple oral dose of 900 mg eslicarbazepine acetate once-daily, last dose, arithmetic mean
[4] = multiple oral dose of 900 mg eslicarbazepine acetate twice-daily (as titled), last dose, arithmetic mean
[5] = multiple oral dose of 900 mg eslicarbazepine acetate twice-daily (as titled), last dose, arithmetic mean, listed as Eslicarbazepine
[6] = in vivo, 50 mg, single dose 50 mg eslicarbazepine acetate, n=6
[7] = in vivo, 100 mg, single dose 100 mg eslicarbazepine acetate, n=6
[8] = in vivo, 200 mg, single dose 200 mg eslicarbazepine acetate, n=6
[9] = in vivo, 400 mg, last dose of 8-day repeated 400 mg o.d. eslicarbazepine acetate, n=6
[10] = in vivo, 400 mg, single dose 400 mg eslicarbazepine acetate, n=6
[11] = in vivo, 600 mg, single dose 600 mg eslicarbazepine acetate, n=6
[12] = in vivo, 800 mg, last dose of 8-day repeated 800 mg o.d. eslicarbazepine acetate, n=6
[13] = in vivo, 900 mg, single dose 900 mg eslicarbazepine acetate, n=6
[14] = in vivo, 1200 mg, last dose of 8-day repeated 1200 mg o.d. eslicarbazepine acetate, n=6
[15] = in vivo, 1200 mg, single dose 1200 mg eslicarbazepine acetate, n=6
[16] = in vivo, 1800 mg, last dose of 8-day repeated 1800 mg o.d. eslicarbazepine acetate, n=6
[17] = in vivo, 2400 mg, last dose of 8-day repeated 2400 mg o.d. eslicarbazepine acetate, n=6
[18] = plasma, 20 mg, single dose 20 mg eslicarbazepine acetate, n=6
[19] = plasma, 1800 mg, single dose 1800 mg eslicarbazepine acetate, n=6
[20] = plasma, 2400 mg, single dose 2400 mg eslicarbazepine acetate, n=6

## NC(=O)N1c2ccccc2C[C@H](O)c2ccccc21 [eslicarbazepine]
[1]; healthy volunteers, 900 mg daily
  total exposure in the once-daily group higher than in the twice-daily group: at least 26%
[1]; multiple oral dose of 900 mg eslicarbazepine acetate once-daily, last dose
  Tmax: 2.45 h
[1]; [3]
  AUC(0-t): 381601 ng·h/mL
  Cmax: 22210 ng/mL
[1]; multiple oral dose of 900 mg eslicarbazepine acetate once-daily, last dose, dosing interval 24 hours
  AUC0-τ: 294.019 µg·h/mL
[1]; multiple oral dose of 900 mg eslicarbazepine acetate twice-daily (as titled), last dose
  Tmax: 2.09 h
[1]; [4]
  AUC0-∞: 289.792 µg·h/mL
  AUC(0-t): 283,014 ng·h/mL
  Cmax: 16,667 ng/mL
  t1/2: 9.17 h
[1]; [5]
  AUC(0-t): 283014 ng·h/mL
  Cmax: 16667 ng/mL
[1]; multiple oral dose of 900 mg eslicarbazepine acetate twice-daily (as titled), last dose, dosing interval 12 hours
  AUC0-τ: 142.08 µg·h/mL
[1]; once-daily subjects
  share of total systemic drug exposure (as assessed by AUC0-24): approximately 95%
[1]; twice-daily subjects
  share of total systemic drug exposure (as assessed by AUC0-24): ~96%
[2]; 400 mg once-daily doses of eslicarbazepine acetate
  mean AUC0-24h: 126 µg·h/mL
[2]; 2400 mg once-daily doses of eslicarbazepine acetate
  mean AUC0-24h: 906 µg·h/mL
[2]; last dose of 8-day repeated 400 mg o.d. eslicarbazepine acetate, n=6
  Median tmax (range): 3 (0.5-7) h
[2]; last dose of 8-day repeated 800 mg o.d. eslicarbazepine acetate, n=6
  Median tmax (range): 3.5 (1-7) h
[2]; last dose of 8-day repeated 1200 mg o.d. eslicarbazepine acetate, n=6
  Median tmax (range): 3 (0.5-6) h
[2]; last dose of 8-day repeated 1800 mg o.d. eslicarbazepine acetate, n=6
  Median tmax (range): 2 (0.5-4) h
[2]; last dose of 8-day repeated 2400 mg o.d. eslicarbazepine acetate, n=6
  Median tmax (range): 2 (1.5-8) h
[2]; last dose, repeated once daily 400 mg doses of eslicarbazepine acetate
  mean Cmax: 8,800 ng/ML
[2]; last dose, repeated once daily 2400 mg doses of eslicarbazepine acetate
  mean Cmax: 56,500 ng/ML
[2]; [6]
  AUC(0-t): 6.7 µg·h/mL
  half-life: 8.1 h
[2]; [7]
  AUC(0-t): 16.4 µg·h/mL
  Cmax: 1500 ng/mL
  half-life: 9.3 h
[2]; [8]
  AUC(0-t): 30.5 µg·h/mL
  Cmax: 2900 ng/mL
  half-life: 8.4 h
[2]; [9]
  AUC(0-t): 126 µg·h/mL
  Cmax: 8800 ng/mL
  half-life: 9.5 h
[2]; [10]
  AUC(0-t): 81.5 µg·h/mL
  Cmax: 5200 ng/mL
  half-life: 11.7 h
[2]; [11]
  AUC(0-t): 120 µg·h/mL
  Cmax: 8500 ng/mL
  half-life: 12.3 h
[2]; [12]
  AUC(0-t): 268 µg·h/mL
  Cmax: 18700 ng/mL
  half-life: 12.3 h
[2]; [13]
  AUC(0-t): 210 µg·h/mL
  Cmax: 15000 ng/mL
  half-life: 16.3 h
[2]; [14]
  AUC(0-t): 423 µg·h/mL
  Cmax: 25500 ng/mL
  half-life: 13.1 h
[2]; [15]
  AUC(0-t): 286 µg·h/mL
  Cmax: 18600 ng/mL
  half-life: 16.5 h
[2]; [16]
  AUC(0-t): 740 µg·h/mL
  Cmax: 47700 ng/mL
  half-life: 11.3 h
[2]; [17]
  AUC(0-t): 906 µg·h/mL
  Cmax: 56500 ng/mL
  half-life: 10.4 h
[2]; in vivo, single dose 50 mg eslicarbazepine acetate, n=6, read-out: Median tmax (range)
  Tmax: 0.8 h
[2]; in vivo, single dose 100 mg eslicarbazepine acetate, n=6, read-out: Median tmax (range)
  Tmax: 1.5 h
[2]; in vivo, single dose 200 mg eslicarbazepine acetate, n=6, read-out: Median tmax (range)
  Tmax: 1.5 h
[2]; in vivo, single dose 400 mg eslicarbazepine acetate, n=6, read-out: Median tmax (range)
  Tmax: 4 h
[2]; in vivo, single dose 600 mg eslicarbazepine acetate, n=6, read-out: Median tmax (range)
  Tmax: 4 h
[2]; in vivo, single dose 900 mg eslicarbazepine acetate, n=6, read-out: Median tmax (range)
  Tmax: 2.3 h
[2]; in vivo, single dose 1200 mg eslicarbazepine acetate, n=6, read-out: Median tmax (range)
  Tmax: 4 h
[2]; [18]
  AUC(0-t): 2.4 µg·h/mL
  Cmax: 300 ng/mL
  half-life: 9.1 h
[2]; plasma, 50 mg, single dose 50 mg eslicarbazepine acetate, n=6
  Cmax: 900 ng/mL
[2]; [19]
  AUC(0-t): 508 µg·h/mL
  Cmax: 34600 ng/mL
  half-life: 11.8 h
[2]; [20]
  AUC(0-t): 0.446 µg·h/mL
  Cmax: 35900 ng/mL
  half-life: 11.1 h
[2]; plasma, last dose, repeated once daily, all dosages, read-out: median tmax
  Tmax: 2 to 3.5 h
[2]; plasma, single dose 20 mg eslicarbazepine acetate, n=6, read-out: Median tmax (range)
  Tmax: 0.8 h
[2]; plasma, single dose 1800 mg eslicarbazepine acetate, n=6, read-out: Median tmax (range)
  Tmax: 3.5 h
[2]; plasma, single dose 2400 mg eslicarbazepine acetate, n=6, read-out: Median tmax (range)
  Tmax: 3 h
clinical
  AUC(0-inf): 389 µg·h/mL
  AUC(0-t): 382 µg·h/mL
  Cmax: 22200 ng/mL
  Tmax: 2.45 h
  half-life: 9.12 h
